Results from ChEMBL document CHEMBL1201862, “PubChem BioAssay data set” (2004).
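Assay format: 96-well plates, 48-hour exposure. GI50 = concentration required for 50% inhibition of growth.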 Active and inactive are the calls of the source. No stated cut-off is given here; in the data, active = GI50 up to about 1.1 µM and inactive = higher.

Assays:
Test in all cases: NCI anticancer screen, dose series, 48 h
[1] = test system: COLO 205
[2] = test system: HCC 2998
[3] = test system: HCT-116
[4] = test system: MOLT-4
[5] = test system: NCI-H522
[6] = test system: OVCAR-4
[7] = test system: OVCAR-5
[8] = test system: OVCAR-8
[9] = test system: RPMI-8226
[10] = test system: SF-295
[11] = test system: SK-MEL-28
[12] = test system: SK-MEL-2
[13] = test system: SNB-75
[14] = test system: U-251
[15] = test system: UACC-257
[16] = test system: HL-60

Measured: GI50

Cc1ccc(NC(=O)CSc2nnc(Cc3ccccc3)o2)cc1
inactive: [1] > 100 µM | [2] > 100 µM | [3] > 100 µM | [4] > 100 µM | [5] > 100 µM | [6] > 100 µM | [7] > 100 µM | [8] 97.9 µM | [9] > 100 µM | [10] > 100 µM | [11] > 100 µM | [12] > 100 µM | [13] > 100 µM | [14] > 100 µM | [15] > 100 µM

COC(=O)C(=O)Cc1nc2ccccc2s1
inactive: [1] > 100 µM | [2] > 100 µM | [3] > 100 µM | [16] > 100 µM | [4] > 100 µM | [5] > 100 µM | [6] > 100 µM | [7] > 100 µM | [8] > 100 µM | [10] > 100 µM | [11] > 100 µM | [12] > 100 µM | [13] > 100 µM | [14] > 100 µM | [15] > 100 µM

Cc1ccc(S(=O)(=O)NC(C)C(=O)O)cc1 (centres undefined)
inactive: [1] > 100 µM | [2] > 100 µM | [16] > 100 µM | [4] > 100 µM | [5] > 100 µM | [6] > 100 µM | [7] > 100 µM | [8] > 100 µM | [9] > 100 µM | [10] > 100 µM | [11] > 100 µM | [12] > 100 µM | [13] > 100 µM | [14] > 100 µM | [15] > 100 µM

COc1cc2ccc3c4cc(OC)c(OCc5ccccc5)cc4cnc3c2cc1OC
inactive: [1] > 100 µM | [2] > 100 µM | [4] 70.6 µM | [5] > 100 µM | [6] > 100 µM | [7] > 100 µM | [8] > 100 µM | [9] 61.9 µM | [10] > 100 µM | [11] > 100 µM | [12] > 100 µM | [13] > 100 µM | [14] > 100 µM | [15] > 100 µM

Cc1c(/C=N/NS(=O)(=O)c2ccccc2)no[n+]1[O-]
inactive: [1] > 100 µM | [3] > 100 µM | [16] > 100 µM | [4] > 100 µM | [5] > 100 µM | [6] > 100 µM | [7] > 100 µM | [8] > 100 µM | [9] > 100 µM | [10] > 100 µM | [11] > 100 µM | [12] > 100 µM | [14] > 100 µM

Cn1c(O)c(C(=O)NC2CCCCC2)c(=O)n(C)c1=S
inactive: [1] 1.94 µM | [4] 3.56 µM | [5] 3.58 µM | [6] 6.75 µM | [7] 14.5 µM | [8] 4.33 µM | [9] 4.32 µM | [10] 3.23 µM | [11] 4.61 µM | [12] 5.11 µM | [14] 4.51 µM | [15] 6.27 µM

CCNc1nnc(CSc2nc(-c3ccccc3)c(-c3ccccc3)[nH]2)s1
inactive: [1] 19.1 µM | [3] 22 µM | [16] 15.5 µM | [4] 20.5 µM | [5] 19.9 µM | [6] 30.5 µM | [7] 21.4 µM | [8] 14 µM | [9] 15.5 µM | [10] 17.7 µM | [11] 14.6 µM | [12] 20.8 µM | [13] 23 µM | [14] 13.7 µM | [15] 17.3 µM

CCc1cccc(CC)c1NC(=O)C1=CNC(C)=C(C(=O)Nc2c(CC)cccc2CC)C1c1ccc(O)c(OC)c1 (centres undefined)
inactive: [1] 56.2 µM | [2] 47.4 µM | [16] 26.5 µM | [4] 22.3 µM | [5] 26.4 µM | [6] 23.9 µM | [7] 54.8 µM | [8] 33.7 µM | [9] 16.8 µM | [10] 29 µM | [11] 33.3 µM | [12] 26.2 µM | [13] 44.7 µM | [14] 12.4 µM | [15] 28.2 µM

FC(F)(F)C12C34C=CC5(CCC6(C=CC1(CC3)O6)C52C(F)(F)F)O4 (centres undefined)
inactive: [1] > 100 µM | [2] > 100 µM | [3] > 100 µM | [16] > 100 µM | [4] > 100 µM | [5] > 100 µM | [6] > 100 µM | [7] > 100 µM | [8] > 100 µM | [10] > 100 µM | [11] > 100 µM | [12] > 100 µM | [14] > 100 µM | [15] > 100 µM

Nc1ccc(-c2cc(C(=O)Nc3nccs3)nc(S)n2)cc1
inactive: [1] > 100 µM | [3] > 100 µM | [4] > 100 µM | [5] > 100 µM | [6] > 100 µM | [7] > 100 µM | [8] > 100 µM | [9] > 100 µM | [11] > 100 µM | [12] > 100 µM | [13] > 100 µM | [14] > 100 µM | [15] > 100 µM

CCOc1ccccc1NC(=O)CCc1nnc2s/c(=C\CCc3ccccc3)c(=O)n12
inactive: [1] > 100 µM | [2] > 100 µM | [3] > 100 µM | [16] > 100 µM | [4] > 100 µM | [5] > 100 µM | [6] > 100 µM | [7] > 100 µM | [8] > 100 µM | [9] > 100 µM | [10] > 100 µM | [11] > 100 µM | [12] > 100 µM | [13] > 100 µM | [14] > 100 µM | [15] > 100 µM

CN1C(=O)N(C)C(N2CCCC2)c2c1nc1ccccn1c2=O (centres undefined)
inactive: [1] > 100 µM | [2] 76.9 µM | [3] 60.4 µM | [16] 36.8 µM | [4] > 100 µM | [5] 61 µM | [6] 58.1 µM | [8] > 100 µM | [9] 88.7 µM | [10] > 100 µM | [11] > 100 µM | [12] 29.7 µM | [13] 45.9 µM | [14] 70.5 µM | [15] 50.7 µM

CC(Oc1ccc(OCC2CCCCC2)cc1)C(=O)NCc1ccco1 (centres undefined)
inactive: [2] 36.6 µM | [3] 26.4 µM | [16] 31.5 µM | [4] 34.9 µM | [5] 18.4 µM | [6] 56.5 µM | [8] 24.9 µM | [11] 43.6 µM | [12] 21 µM | [13] 25.6 µM | [14] 36.6 µM | [15] 23.6 µM

CC(=O)OC[C@]1(C)CCCC2(C)C1CCC1C=C(C)[C@H]3CCC12C3 (some centres undefined)
inactive: [1] 38.5 µM | [2] > 100 µM | [3] 47.4 µM | [16] > 100 µM | [4] > 100 µM | [5] 10.6 µM | [6] > 100 µM | [7] > 100 µM | [8] > 100 µM | [9] 62.7 µM | [10] 35 µM | [11] 60.5 µM | [13] 31.8 µM | [14] 39.7 µM | [15] 61.7 µM
